Data published in patent publication US5773437A, “Alkylenediamine derivatives” (Nippon Chemiphar Co., Ltd., priority 1994, dated 1998).
Structures can show the parent of a compound that is named as a salt.

Assays:
[1] = Mouse acute toxicity LD50 (i.v.), Probit method; type: in vivo; details: calculated by Probit method; for LD50: in vivo, iv
Excerpt: The results seen in Table 4 clearly indicate that the compound of the invention is effective in relieving urinating contraction. Further, the toxicity of the compound is set forth in Table 4 in terms of LD50 (mg/kg) calculated by Probit method.

[2] = test system: bladder (urinating contraction); experiment: Period of inhibition of rhythmic bladder contraction (urinating contraction) in urethane-anesthetized rats; type: in vivo, rat (Wistar strain, male); details: rat, saline control 1.6 min
Experimental: The compound of the invention was evaluated in urinating contraction of bladder by the following test method.
A male rat (Wistar strain) was fixed on his back under urethane anesthesia (1.5 g/kg, S.C.). A tracheal cannula was inserted into the rat to respire easily, and its hypogastrium was subjected to median dissection for exposing its bladder. A small opening was made on the top of the bladder to remove urine. To the bladder was inserted a polyethylene cannula. The bladder system was made to closed system by ligating urethra and ureter.
A physiological saline was injected into the bladder of rat at a rate of 0.05 mL/min. using a continuous injector so as to cause periodical urinating contraction. The intravesical pressure of the bladder was measured by means of a pressure transducer. The measured value was recorded on a pen-writing recorder. The compound to be tested was dissolved in a physiological saline and administered into the femoral vein using the polyethylene cannula.
The action for relieving urinating contraction was evaluated by measuring a period of time during which the rhythimic bladder contraction was inhibited (period of contraction inhibition).
The compounds tested were those obtained in the working examples.

[3] = 6 mg/kg i.v., Hydrochloride, 6 mg/kg
[4] = 6 mg/kg i.v., Fumarate, 6 mg/kg

Structure (SMILES)	LD50 [1]	Period of Contraction Inhibition ([2]; 8 mg/kg i.v.)	also measured
Cl.O=C1CN(C(CCN2CCOCC2)c2ccccc2)S(=O)(=O)c2ccccc21 (single isomer, unassigned; (+)) [Example 20[C]] [(+)-2-(3-Morpholino-1-phenylpropyl)-2H-1,2-benzothiazin-4(3H)-one 1,1-Dioxide Hydrochloride]	–	–	Mouse LD50 ([1]; Hydrochloride): 180 mg/kg; Period of Contraction Inhibition [2, 3]: 6.0 min
O=C(O)/C=C/C(=O)O.O=C1c2ccccc2CS(=O)(=O)N1C(CCN1CCOCC1)c1ccccc1 (single isomer, unassigned; (+)) [Example 24[C]] [(+)-3-(3-Morpholino-1-phenylpropyl)-1H-2,3-benzothiazin-4(3H)-one 2,2-Dioxide Fumarate]	–	–	Mouse LD50 ([1]; Fumarate): 167 mg/kg; Period of Contraction Inhibition [2, 4]: 0.7 min
Cl.O=C1CN(C(CCN2CCOCC2)c2ccccc2)S(=O)(=O)c2ccccc21 (single isomer, unassigned; (-)) [Example 20[B], (-)-2-(3-Morpholino-1-phenylpropyl)-2H-1,2-benzothiazin-4(3H)-one 1,1-Dioxide Hydrochloride]	140 mg/kg	–	–
Cl.O=C1CN(C(CCN2CCOCC2)c2ccccc2)S(=O)(=O)c2ccccc21 (single isomer, unassigned; (-)) [Example 20[B]] [(-)-2-(3-Morpholino-1-phenylpropyl)-2H-1,2-benzothiazin-4(3H)-one 1,1-Dioxide Hydrochloride]	–	–	Period of Contraction Inhibition [2, 3]: 0.4 min
O=C(O)/C=C/C(=O)O.O=C1c2ccccc2CS(=O)(=O)N1C(CCN1CCOCC1)c1ccccc1 (single isomer, unassigned; (-)) [Example 24[B]] [(-)-3-(3-Morpholino-1-phenylpropyl)-1H-2,3-benzothiazin-4(3H)-one 2,2-Dioxide Fumarate]	–	–	Mouse LD50 ([1]; Fumarate): 32 mg/kg; Period of Contraction Inhibition [2, 4]: 8.5 min
Cl.O=C1CN(CCCN2CCC(Oc3ccccc3)CC2)S(=O)(=O)c2ccccc21 [Example 1, 2-[3-(4-Phenoxypiperidino)propyl]-2H-1,2-benzothiazin-4(3H)-one 1,1-dioxide Hydrochloride]	–	–	Period of Contraction Inhibition ([2]; 1 mg/kg i.v.): 2.8 min
Cl.O=C1CN(CCCN2CCC(OCc3ccccc3)CC2)S(=O)(=O)c2ccccc21 [Example 2, 2-[3-(4-Benzyloxypiperidino)propyl]-2H-1,2-benzothiazin-4(3H)-one 1,1-Dioxide Hydrochloride]	–	16 min	–
O=C(O)/C=C/C(=O)O.O=C1c2ccccc2CS(=O)(=O)N1CCCN1CCC(Cc2ccccc2)CC1 [Example 3, 3-[3-(4-Benzylpiperidino)propyl]-1H-2,3-benzothiazin-4(3H)-one 2,2-Dioxide Fumarate]	–	2 min	–
Cl.O=C1CN(CCCN2CCC(Cc3ccccc3)CC2)S(=O)(=O)c2ccccc21 [Example 10, 2-[3-(4-Benzylpiperidino)propyl)-2H-1,2-benzothiazin-4(3H)-one 1,1-Dioxide Hydrochloride]	3 mg/kg	14.5 min	–
CCCCN(CCCN1CC(=O)c2ccccc2S1(=O)=O)Cc1ccccc1.Cl [Example 11, 2-[3-(N-Benzyl-N-butylamino)propyl]-2H-1,2-benzothiazin-4(3H)-one 1,1-Dioxide Hydrochloride]	37 mg/kg	3.9 min	–
Cl.O=C1CN(CCCN2CCN(C(c3ccccc3)c3ccccc3)CC2)S(=O)(=O)c2ccccc21 [Example 12, 2-[3-(4-Diphenylmethyl-1-piperazinyl)propyl]-2H-1,2-benzothiazin-4(3H)-one 1,1-Dioxide Hydrochloride]	–	2.5 min	–
Cl.O=C1CN(CCN2CCC(Cc3ccccc3)CC2)S(=O)(=O)c2ccccc21 [Example 13, 2-[2-(4-Benzylpiperidino)ethyl]-2H-1,2-benzothiazin-4(3H)-one 1,1-Dioxide Hydrochloride]	–	18 min	–
Cl.O=C1CN(CCCN2CCN(Cc3ccccc3)CC2)S(=O)(=O)c2ccccc21 [Example 14, 2-[3-(4-Benzyl-1-piperazinyl)propyl]-2H-1,2-benzothiazin-4(3H)-one 1,1-Dioxide Hydrochloride]	17 mg/kg	12.7 min	–
O=C1CN(CCCN2CCc3ccccc3C2)S(=O)(=O)c2ccccc21 [Example 15, 2-[3-[2-(1,2,3,4-Tetrahydroisoquinolyl)]propyl]-2H-1,2-benzothiazin-4(3H)-one 1,1-Dioxide Hydrochloride]	23 mg/kg	4.7 min	–
Cl.O=C1CN(C(CCN2CCOCC2)c2ccccc2)S(=O)(=O)c2ccccc21 (stereo not drawn) [Example 20[A], 2-(3-Morpholino-1-phenylpropyl)-2H-1,2-benzothiazin-4(3H)-one 1,1-Dioxide Hydrochloride]	> 120 mg/kg	–	Period of Contraction Inhibition ([2]; 12 mg/kg i.v.): 9.7 min
Cl.O=C1CN(C(CCN2CCSCC2)c2ccccc2)S(=O)(=O)c2ccccc21 (stereo not drawn) [Example 21, 2-(1-Phenyl-3-thiomorpholinopropyl)-2H-1,2-benzothiazin-4(3H)-one 1,1-Dioxide Hydrochloride]	> 100 mg/kg	–	Period of Contraction Inhibition ([2]; 10 mg/kg i.v.): 7.0 min
O=C(O)/C=C/C(=O)O.O=C1c2ccccc2CS(=O)(=O)N1C(CCN1CCOCC1)c1ccccc1 (stereo not drawn) [Example 24[A], 3-(3-Morpholino-1-phenylpropyl)-1H-2,3-benzothiazin-4(3H)-one 2,2-Dioxide Fumarate]	62 mg/kg	–	Period of Contraction Inhibition ([2]; 12 mg/kg i.v.): 5.6 min
CS(=O)(=O)O.O=C1c2ccccc2CS(=O)(=O)N1C(CCN1CCSCC1)c1ccccc1 (stereo not drawn) [Example 26, 3-(1-Phenyl-3-thiomorpholinopropyl)-1H-2,3-benzothiazin-4(3H)-one 2,2-Dioxide Mesylate]	37 mg/kg	–	Period of Contraction Inhibition ([2]; 4 mg/kg i.v.): 7.3 min
N#CC1(c2ccccc2)CCN(CCCN2CC(=O)c3ccccc3S2(=O)=O)CC1.O=C(O)/C=C/C(=O)O [Example 32, 2-[3-(4-Cyano-4-phenylpiperidino)propyl]-2H-1,2-benzothiazin-4(3H)-one 1,1-Dioxide Fumarate]	–	6 min	–
N#CC1(c2ccccc2)CCN(CCC(c2ccccc2)N2CC(=O)c3ccccc3S2(=O)=O)CC1.O=C(O)/C=C/C(=O)O (stereo not drawn) [Example 34, 2-[3-(4-Cyano-4-phenylpiperidino)-1-phenylpropyl]-2H-1,2-benzothiazin-4(3H)-one 1,1-Dioxide Fumarate]	–	3 min	–
O=C1c2ccccc2S(=O)(=O)N1C(CCN1CCSCC1)c1ccccc1 (stereo not drawn) [Example II, 2-(1-Phenyl-3-thiomorpholino)propyl-1,2-benzisothiazol-3(2H)-one 1,1-Dioxide Fumarate]	47 mg/kg	–	Period of Contraction Inhibition ([2]; 5 mg/kg i.v.): 3.8 min
O=C1c2ccccc2S(=O)(=O)N1C(CCN1CCOCC1)c1ccccc1 (stereo not drawn) [Example IX, 2-(3-Morpholino-1-pheny)propyl-1,2-benzisothiazol-3(2H)-one 1,1-Dioxide Fumarate]	48 mg/kg	–	Period of Contraction Inhibition ([2]; 5 mg/kg i.v.): 10.7 min
CC(=O)N1CCN(CCC(c2ccccc2)N2C(=O)c3ccccc3S2(=O)=O)CC1 (stereo not drawn) [Example XI, 2-[3-(4-Acetyl-1-piperazinyl)-1-pheny]propyl-1,2-benzisothiazol-3(2H)-one 1,1-Dioxide Fumarate]	170 mg/kg	–	Period of Contraction Inhibition ([2]; 17 mg/kg i.v.): 6.0 min
O=C1c2ccccc2S(=O)(=O)N1C(CCN1CCN(c2ncccn2)CC1)c1ccccc1 (stereo not drawn) [Example XII, 2-[1-Phenyl-3-[4-(2-pyrimidinyl)-1-piperazinyl]propyl-1,2-benzisothiazol-3(2H)-one 1,1-Dioxide Hydrochloride]	> 200 mg/kg	–	Period of Contraction Inhibition ([2]; 20 mg/kg i.v.): 3.5 min
